This is an account of results in US10844141B2, “Process for obtaining polysaccharides from jatoba (Hymenea courbaril l ) seeds, cosmetic composition comprising said polysaccharides and uses thereof” (NATURA COSMÉTICOS S.A., priority 2008, dated 2020).

Several values for one entry are separate records, joined by “and”; a condition that tells them apart may be missing. Equal entries are not always repeated.

Assay [1] deals with human skin fibroblasts in primary culture. The assay is described as follows: Cell proliferation by neutral red staining (cell viability). The conditions noted are these: TGF positive control, 96 hours of incubation, control = 100. It counts as cell-based. How it is done:
(§1) Assays were carried out to assess the potential of the polysaccharides obtained in accordance with the present invention in promoting cell proliferation (the increase in the number of cells in relation to a control group not treated with the active ingredient) by analyzing cell viability through neutral red staining. Another object of the assays was to assess the procollagen potential of active ingredients (collagen in excess produced by the cells treated with the active ingredient in relation to the untreated control cells), by detecting the collagen in the culture supernatant through the sirius red stain.
a) Whether or not the presence of a specific active ingredient in the cell culture, for one or more periods, results in an increase in the number of cells in relation to the control group (cells not treated with the same active ingredient). The number of cells is estimated as a function of the cell viability rate, which is monitored by the incubation of fibroblasts with the vital stain neutral red at the end of the assay period (96 h). This stain is incorporated into living cells so that the cell viability rate is given by the intensity of the stain absorbed by the cells in a directly proportional ratio. The colorimetric reading is carried out in a spectrophotometer, at the wavelength of 540 nm.

Assay [2] shares this test system. Put plainly: Procollagen potential / collagen synthesis by sirius red stain in culture supernatant. Type of assay: cell-based. As to conditions: TGF positive control, 96 hours; for Normalized Collagen (%) (increase in collagen synthesis): control = 0.00. Here is the method:
as §1
b) Whether or not the presence of the active ingredient induces the cells to produce more collagen per se. To this end, dermis-derived human fibroblasts are incubated with the […](TGF-β), known to induce collagen synthesis and secretion (positive control). Simultaneously, other fibroblasts under the same condition are incubated with the active ingredient being tested. The collagen is identified by the sirius red stain (picrosirius solution), which has affinity for procollagen and collagen molecules. The procollagen potential of each active ingredient is identified by the increase in optical density (absorbance 540 nm filter) measured after the dissolution of the pigments previously absorbed by the collagen present in the culture supernatants.

With tumor growth factor-β [TGF], the “Cell Proliferation” value in assay [1] is 136.00% and 148.1%. Besides, the “Total Collagen ± standard deviation (optical density)” value in assay [2] (control 0.152) worked out at 0.224 ± 0.009 Abs. Also, the “Normalized Collagen (%) (increase in collagen synthesis)” value in assay [2] is given as 98.10%; in assay [2] (listed as TGF-b) it was 98.1%. The “Collagen (%) after normalization by the viability index” value in assay [2] (control = 100.00 (Table 2)) was 109.4%. Further, the “Normalized Collagen” value in assay [2] (normalized by viability index, control = 100.00) stood at 198.10%.
